Measurements published in patent US20090004683A1, “Indicator Agent for Noninflammatory Stress Response and Use Thereof” (priority 2004, published 2009).

Legend:
IL-18 [1] = test: Plasma IL-18 level in restraint stress mice (ELISA); type: in vivo, mouse; conditions: given i.p. during restraint (Ac-YVAD-CHO 200 μM/50 μl, Z-FA-fmk 100 μM/50 μl, SB-203580 100 μg, SOD-1 20 U, DPI 30 μg)
Protocol: (§1) For restraint stress, each mouse was kept in a restrainer (a round plastic tube 27 mm in diameter) for 1, 3 or 6 hours, and IL-18 levels were measured. Regarding the analysis of IL-6, each mouse was restrained as described above, and then housed in the starting cage for 6 hours, after which a measurement was performed.
(§2) After restraint, each mouse was anesthetized with diethyl ether, and blood was drawn into an EDTA-containing tube. Plasma was separated by centrifugation at 4° C. and 10000×g for 10 minutes, and stored at −80° C. IL-18 and IL-6 were analyzed by ELISA using Quantikine™ immunoassay kit (R&D Systems) and OptEIA™ (BD-Pharmingen), respectively.
(§3) The anti-ACTH antiserum (50 μl, 1:1), dexamethasone (1 ng/50 μl PBS(−)) or the anti-IL-18 antibody (50 μl, 1:1) was administered intraperitoneally to each mouse; after 10 minutes elapsed, the animal was kept in a restraint tube for 6 hours. Synthetic ACTH (250 μg/50 μl PBS(−)) was injected to the left leg; after 6 hours elapsed, the mice were subjected to the experiment.
(§4) Each mouse was kept in a restrainer for 1 hour, and Ac-YVAD-CHO (200 μM/50 μl PBS(−)), Z-FA-fmk (100 μM/50 μl PBS(−)) and SB-203580 (100 μg/50 μl PBS(−) per mouse) were administered intraperitoneally. 1 and 3 hours after the start of restraint, SOD-1 (20 U) and DPI (30 μg) were administered intraperitoneally to the mouse, and samples were analyzed by Western blotting.

caspase-1 [2] = molecular target: T1, caspase-1 (Mus musculus, UniProt P29452); test: Caspase-1 activity in the adrenal of restraint stress mice (Ac-YVAD-MCA fluorescent substrate); type: in vivo; conditions: given i.p. during restraint
T1 construct: from tissue; host or cells: mouse adrenal (homogenate)
T1 sequence (P29452 119-296 limits assumed): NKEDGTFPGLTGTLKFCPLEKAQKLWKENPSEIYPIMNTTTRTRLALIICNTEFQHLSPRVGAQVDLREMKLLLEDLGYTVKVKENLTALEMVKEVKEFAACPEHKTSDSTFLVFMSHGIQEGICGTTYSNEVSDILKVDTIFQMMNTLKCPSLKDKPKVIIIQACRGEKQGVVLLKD
T1 sequence (P29452 315-402 limits assumed): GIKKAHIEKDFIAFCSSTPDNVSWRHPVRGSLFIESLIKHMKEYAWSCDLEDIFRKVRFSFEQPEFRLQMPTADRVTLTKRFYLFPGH
Protocol: as §4
Caspase-1 activity in the adrenal was measured using a caspase assay kit (manufactured by BD-Pharmingen). Describing briefly, a homogenate of adrenal tissue was incubated with Ac-YVAD-MCA (acetyl-L-tyrosyl-L-valyl-L-alanyl-L-aspartic acid 4-methyl-coumaryl-7-amide), which is a fluorescent substrate for caspase-1, and the MCA leaving from the aforementioned substrate was measured using a fluorescence plate reader (excitation wavelength 380 nm, irradiation wavelength 420-460 nm).

glyoma cell line C6 = conditions: cited from earlier work
procaspase-11 = test: Procaspase-11 protein in the adrenal of restraint stress mice (Western blotting); type: in vivo, mouse; conditions: given i.p. during restraint
Protocol: as §4
(§5) Western blot analysis of IL-18 and phosphorylated P38MAP kinase in adrenal tissue was performed as described below. The adrenal tissue was homogenized in an immunoprecipitation (IP) buffer solution (50 mM Tris pH 7.4, 150 mM NaCl, 0.5% NP-40 and 0.5% sodium deoxycholate) containing a protease inhibitor mixture (manufactured by Roche Diagnostics) using a Polytron homogenizer. […] The aforementioned membrane was incubated with an antibody (IL-18, phosphorylated (Thr180/Tyr182) P38 MAP kinase, caspase-1 or caspase-11), and the reacted protein was detected using an ECL plus system (manufactured by Amersham biosciences). Procaspase-11 and activated P38 MAP kinase were quantified using a Science Lab 99 image analysis system (manufactured by Fujifilm).

IL-6 = test: Plasma IL-6 level in stress-loaded wild type mice (ELISA); type: in vivo, mouse; conditions: stress-loaded WT mice; FIG. 5B
Protocol: as §1, §2
Using IL-18-deficient mice, the relationship between IL-6, which is another stress-related cytokine, and IL-18, was examined. Without stress, IL-6 was undetectable in WT and IL-18 KO, but after 3 hours of stress loading, the IL-6 level was 230 pg/ml in WT and 25 pg/ml in IL-18 KO (FIG. 5A). After liberation from the stress, plasma IL-6 was kept at about 80 pg/ml in WT, but decreased to 5 pg/ml in IL-18 KO (FIG. 5A). Treatment with YVAD-CHO, SOD and anti-IL-18 antibody 70% inhibited the stress-induced increase in plasma IL-6 level in WT (FIG. 5B).

IL-18 precursor = test: IL-18 (precursor) level in the adrenal of restraint stress mice; type: in vivo, mouse; conditions: given i.p. during restraint
Protocol: as §1, §3, §4
Western blot analysis of IL-18 and phosphorylated P38MAP kinase in adrenal tissue was performed as described below. […] Procaspase-11 and activated P38 MAP kinase were quantified using a Science Lab 99 image analysis system (manufactured by Fujifilm).

[3] = test system: phosphorylated (Thr180/Tyr182) P38 MAP kinase; test: Phosphorylated P38MAP kinase in the adrenal of restraint stress mice (Western blotting); type: in vivo, mouse; conditions: Western blotting, FIG. 3D
Protocol: as §4
Western blot analysis of IL-18 and phosphorylated P38MAP kinase in adrenal tissue was performed as described below. The adrenal tissue was homogenized in an immunoprecipitation (IP) buffer solution (50 mM Tris pH 7.4, 150 mM NaCl, 0.5% NP-40 and 0.5% sodium deoxycholate) containing a protease inhibitor mixture (manufactured by Roche Diagnostics) using a Polytron homogenizer. The homogenate obtained (100 μg protein) was pre-clarified using protein A/G agarose (Exalpha Biologicals, Inc.), incubated with the anti-mouse IL-18 monoclonal antibody or the anti-phosphorylated (Thr180/Tyr182) P38 MAP kinase antibody and protein A/G agarose (50 μl), and centrifuged (at 13000×g for 25 minutes, 4° C.). The precipitate was boiled, and the adrenal protein was recovered, electrophoresed in 10-20% SDS-polyacrylamide gradient gel, and electrically transferred to a Hybond ECL (manufactured by Amersham) nitrocellulose membrane. The aforementioned membrane was incubated with an antibody (IL-18, phosphorylated (Thr180/Tyr182) P38 MAP kinase, caspase-1 or caspase-11), and the reacted protein was detected using an ECL plus system (manufactured by Amersham biosciences). Procaspase-11 and activated P38 MAP kinase were quantified using a Science Lab 99 image analysis system (manufactured by Fujifilm).

[4] = test system: phosphorylated P38MAP kinase; test: Immunohistochemistry of phosphorylated P38MAP kinase in adrenal cortex of stress-loaded mice; type: in vivo, mouse; conditions: FIG. 3F
Protocol: The adrenal was fixed in formalin, embedded in paraffin, and cut into 4-μm sections. The aforementioned tissue sections were incubated with an antibody (P38 MAP kinase, caspase-11, caspase-1 (these three were diluted 200 fold) or IL-18 (diluted 400 fold)). Using a horseradish peroxidase-conjugated secondary antibody (manufactured by Santa Cruz) and diaminobenzidin (DBA), color development was performed. For control, sections without the primary antibody and sections derived from a mouse without stress were used.

caspase-1 [5] = test: Procaspase-1 in the adrenal after ACTH administration (Western blotting); type: in vivo, mouse; conditions: FIG. 2A lane 2
Protocol: as §3, §5

IL-18 [6] = test: IL-18 in plasma and adrenal after administration of synthetic ACTH; type: in vivo, mouse; conditions: 250 μg injected to the left leg, after 6 hours, no restraint
Protocol: as §2, §3

Brain microglia = test: IL-18 release from microglia with paraquat stimulation; type: cell-based, mouse
Protocol: Brain microglia isolated from the mouse neonatal brain by the method of Hassan et al. (Hassan N F, Rifat S, Campbell D E, McCawley L J, Douglas S D. J. Leukoc Biol. 1991 July; 50(1):86-92) were cultured at 1.5-2.0×10^6/ml. This was cultured in Dulbecco's minimum essential medium containing 100 nM of paraquat, which is an active oxygen generator, for 1 hour, after which the medium was exchanged with a paraquat-free medium. After further cultivation for 3 hours, the medium was collected, and the concentration of IL-18 protein in the medium was measured.

Synovial membrane tissue = test: IL-18 release from synovial membrane tissue with paraquat stimulation; type: cell-based, human; conditions: synovial membrane tissue of articular rheumatism patient, 100 nM paraquat 15 minutes; SOD 1-20 U/ml
Protocol: Synovial membrane tissue collected from the articular synovial membrane at a lesion site of an articular rheumatism patient was subjected to tissue culture in an RPMI-1640 medium containing 10% fetal bovine serum by the method of Tanaka et al. (Tanaka M, Harigai M, Kawaguchi Y, Ohta S, Sugiura T, Takagi K, Ohsako-Higami S, Fukasawa C, Hara M, Kamatani N., J. Rheumatol. 2001 August; 28(8):1779-87). The medium was exchanged with the aforementioned medium containing 100 nM of paraquat, which is an active oxygen generator, and the cells were cultured for 15 minutes, after which the medium was exchanged with a paraquat-free medium, and the cells were further cultured for 1 hour, after which the medium was collected, and the concentration of IL-18 protein in the medium was measured.

Brain astrocytes = test: IL-18 release from astrocytes with paraquat stimulation; type: cell-based, mouse
Protocol: Brain astrocytes isolated from the mouse neonatal brain by the method of Yang et al. (Yang P, Hernandez M R. Brain Res Brain Res Protoc. 2003 October; 12(2):67-76) were prepared at 1.5-2.0×10^6/ml. This was cultured in Dulbecco's minimum essential medium containing 100 nM of paraquat, which is an active oxygen generator, for 1 hour, after which the medium was exchanged with a paraquat-free medium. The cells were further cultured for 3 hours, after which the medium was collected, and the concentration of IL-18 protein in the medium was measured.

[7] = test system: Primary culture human skin keratinocytes; test: IL-18 release from keratinocytes with paraquat stimulation; type: cell-based
Protocol: Primary culture human skin keratinocytes (keratinocytes) were cultured in a basal medium for keratinocytes contained in petri dishes for cell culture 6 cm in diameter at 1.0-2.0×10^6/dish. This was cultured in the aforementioned medium containing 1 μM of paraquat, which is an active oxygen generator, for 15 minutes, after which the medium was exchanged with a paraquat-free medium, and the cells were further cultured for 1 hour, after which the medium was collected, and the concentration of IL-18 protein in the medium was measured.

[8] = test system: Primary culture human skin keratinocytes; test: IL-18 release from keratinocytes with UV-B ray irradiation; type: cell-based; conditions: 100 mJ UV-B, SOD 1-20 U/ml or water-soluble vitamin E 100 nM-10 mM/ml
Protocol: Primary culture human skin keratinocytes (keratinocytes: purchased from CAMBREX Company) were cultured in a basal medium for keratinocytes contained in petri dishes for cell culture 6 cm in diameter at 1.0-2.0×10^6/dish. This was irradiated with 100 mJ of ultraviolet B rays (UV-B rays), after which the cells were cultured for 1 hour, after which the medium was collected, and the concentration of IL-18 protein in the medium was measured. Also, after the UV-B ray treatment, the cells were cultured in a medium containing SOD (1, 2.5, 5, 10, 20 U/ml), which is an active oxygen eliminator, or water-soluble vitamin E (100 nM, 1, 2.5, 5, 10 mM/ml), and the concentration of IL-18 protein in the medium was measured. In the keratinocytes, the activation and release of IL-18 by the active oxygen molecular species were observed. Furthermore, these were suppressed by SOD, which is an active oxygen eliminator, or by vitamin E, which neutralizes active oxygen, dose-dependently (FIGS. 7C and 7D).

Abdominal macrophages = test: IL-18 release from macrophages with paraquat stimulation; type: cell-based, mouse; conditions: 100 nM paraquat 15 minutes, SOD 1-20 U/ml
Protocol: Abdominal macrophages isolated from mice by the method of Hamilton et al. (Hamilton T A, Weiel J E, Adams D O., J. Immunol. 1984 May; 132(5):2285-90) were cultured in Dulbecco's minimum essential medium at 1.0-2.0×10^5/dish. The medium was exchanged with the aforementioned medium containing 100 nM of paraquat, which is an active oxygen generator, and the cells were cultured for 15 minutes, after which the medium was exchanged with a paraquat-free medium, and the cells were further cultured for 3 hours, after which the medium was collected, and the concentration of IL-18 protein in the medium was measured.

[9] = test system: Primary culture human renal proximal tubular epithelial cells; test: IL-18 release from renal tubular epithelial cells with paraquat stimulation; type: cell-based
Protocol: Primary culture human renal proximal tubular epithelial cells (purchased from CAMBREX Company) were cultured in a basal medium for renal tubular cells: contents 10 μg/ml hEGF (recombinant human epithelial cell growth factor) 0.5 ml, 5 mg/ml insulin 0.5 ml, 0.5 mg/ml hydrocortisone 0.5 ml, FBS (fetal bovine serum) 2.5 ml, 0.5 mg/ml epinephrine 0.5 ml, 6.5 μg/ml triiodothyronine 0.5 ml, 10 mg/ml transferrin 0.5 ml, 50 mg/ml gentamycin, 50 μg/ml amphotericin-B 0.5 ml), in petri dishes for cell culture 6 cm in diameter at 1.0-2.0×10^6/dish. This was cultured in the aforementioned medium containing 100 nM of paraquat, which is an active oxygen generator, for 15 minutes, after which the medium was exchanged with the same but paraquat-free medium. After the cells were further cultured for 1 hour, the medium was collected, and the concentration of IL-18 protein in the medium was measured.

c1ccc2c(c1)[I+]c1ccccc1-2 [DPI, Diphenyleneiodonium chloride]
stress-induced increase in plasma IL-18 level (IL-18 [1]): suppressed

C[S+]([O-])c1ccc(-c2nc(-c3ccncc3)c(-c3ccc(F)cc3)[nH]2)cc1 (centres unmarked) [SB203580]
stress-induced increase in caspase-1 activity in the adrenal (caspase-1 [2]): lower than those in control mice | stress-induced increase in plasma IL-18 level (IL-18 [1]): lower than those in control mice | activation of caspase-1 subsequent to LPS (glyoma cell line C6): suppressed | induction of caspase-11 mRNA by LPS (glyoma cell line C6): suppressed | stress-induced increase in procaspase-11 protein (procaspase-11): inhibited

CC(=O)N[C@@H](Cc1ccc(O)cc1)C(=O)N[C@H](C(=O)N[C@@H](C)C(=O)N[C@H](C=O)CC(=O)O)C(C)C [YVAD-CHO, Ac-YVAD-CHO]
inhibition of the stress-induced increase in plasma IL-6 level (IL-6): 70% | stress-induced increase in caspase-1 activity in the adrenal (caspase-1 [2]): suppressed | IL-18 precursor protein level in the adrenal (IL-18 precursor): did not inhibit | phosphorylation of P38MAP kinase in the adrenal [3]: Neither YVAD-CHO nor Z-FA-fmk influenced | stress-induced increase in plasma IL-18 level (IL-18 [1]): effectively inhibited | accumulation of phosphorylated P38MAP kinase in adrenal cortex [4]: did not influence

CC(NC(=O)[C@H](Cc1ccccc1)NC(=O)OCc1ccccc1)C(=O)CF (some centres unmarked) [Z-FA-fmk]
stress-induced increase in caspase-1 activity in the adrenal (caspase-1 [2]): suppressed | phosphorylation of P38MAP kinase in the adrenal [3]: Neither YVAD-CHO nor Z-FA-fmk influenced | stress-induced increase in plasma IL-18 level (IL-18 [1]): suppressed | accumulation of phosphorylated P38MAP kinase in adrenal cortex [4]: did not influence

ACTH: Synthetic ACTH (1-24 amino acids) purchased from Peninsula Laboratories Inc. (SYSMEHFRWGKPVGKKRRPVKVYP; Corticotropin; UniProt P01189 138-161, looked up, fragment)
induction of caspase-1 in the adrenal (caspase-1 [5]): induced | plasma IL-18 level after ACTH administration (IL-18 [6]; FIG. 1D): rose, but its degree was lower than that with stress loading | IL-18 level in the adrenal after ACTH administration (IL-18 [6]; FIG. 1E): rose to the same extent as in the case of stress loading

vitamin E
activation and release of IL-18 into the medium (Brain microglia): suppressed | activation and release of IL-18 into the medium (Synovial membrane tissue): suppressed | activation and release of IL-18 into the medium (Brain astrocytes): suppressed | activation and release of IL-18 into the medium [7]: suppressed | activation and release of IL-18 into the medium [8]: suppressed | activation and release of IL-18 into the medium (Abdominal macrophages): suppressed | activation and release of IL-18 into the medium [9]: suppressed
